Data taken from PubChem BioAssay (NCI).
Values joined by “and” are separate entries in the source; they are usually repeats but may differ in a detail not shown here. Equal values may be shown once.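 Where inhibition never reached the appropriate level, the endpoint shown equals the highest concentration tested. Otherwise, values were interpolated linearly from a five-concentration, 48-hour dose response in 96-well plates. At the GI50, growth is halved. TGI: concentration producing complete growth inhibition.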

Experiments:
Assay in all cases: NCI anticancer screen, dose series, 48 h
SK-MEL-5 melanoma = tested on: SK-MEL-5 melanoma
CCRF-CEM leukemia = tested on: CCRF-CEM leukemia
SF-295 CNS = tested on: SF-295 CNS
HCT-15 colon = tested on: HCT-15 colon
SW-620 colon = tested on: SW-620 colon
EKVX NSCLC = tested on: EKVX NSCLC
SK-MEL-28 melanoma = tested on: SK-MEL-28 melanoma
DU-145 prostate = tested on: DU-145 prostate
SK-OV-3 ovarian = tested on: SK-OV-3 ovarian
HCT-116 colon = tested on: HCT-116 colon
CAKI-1 renal = tested on: CAKI-1 renal
PC-3 prostate = tested on: PC-3 prostate
SNB-75 CNS = tested on: SNB-75 CNS
KM12 colon = tested on: KM12 colon
UO-31 renal = tested on: UO-31 renal
SR leukemia = tested on: SR leukemia
SF-539 CNS = tested on: SF-539 CNS
BT-549 breast = tested on: BT-549 breast
LOX IMVI melanoma = tested on: LOX IMVI melanoma
NCI-H226 lung = tested on: NCI-H226 lung
SN12C renal = tested on: SN12C renal
U251 CNS = tested on: U251 CNS
786-0 renal = tested on: 786-0 renal
COLO 205 colon = tested on: COLO 205 colon
IGROV1 ovarian = tested on: IGROV1 ovarian
HOP-62 NSCLC = tested on: HOP-62 NSCLC
K-562 leukemia = tested on: K-562 leukemia
NCI-H460 lung = tested on: NCI-H460 lung
TK-10 renal = tested on: TK-10 renal
OVCAR-8 ovarian = tested on: OVCAR-8 ovarian
MDA-MB-231 breast = tested on: MDA-MB-231 breast
NCI-H522 lung = tested on: NCI-H522 lung
ACHN renal = tested on: ACHN renal
HL-60(TB) leukemia = tested on: HL-60(TB) leukemia
HS 578T breast = tested on: HS 578T breast
RXF 393 renal = tested on: RXF 393 renal
RPMI-8226 leukemia = tested on: RPMI-8226 leukemia
MCF7 breast = tested on: MCF7 breast
SK-MEL-2 melanoma = tested on: SK-MEL-2 melanoma
UACC-257 melanoma = tested on: UACC-257 melanoma
T-47D breast = tested on: T-47D breast
OVCAR-4 ovarian = tested on: OVCAR-4 ovarian
SF-268 CNS = tested on: SF-268 CNS
UACC-62 melanoma = tested on: UACC-62 melanoma
SNB-19 CNS = tested on: SNB-19 CNS
MOLT-4 leukemia = tested on: MOLT-4 leukemia
A498 renal = tested on: A498 renal
HOP-92 NSCLC = tested on: HOP-92 NSCLC
OVCAR-3 ovarian = tested on: OVCAR-3 ovarian
A549 NSCLC = tested on: A549 NSCLC
MDA-MB-435 = tested on: MDA-MB-435
HT29 colon = tested on: HT29 colon
MALME-3M melanoma = tested on: MALME-3M melanoma

With NC(=S)N=Nc1c(O)[nH]c2ccccc12 the GI50 (SK-MEL-5 melanoma) was 55.5 µM and 201 µM, the TGI (SK-MEL-5 melanoma) was 651 µM and the GI50 (CCRF-CEM leukemia) was 253 µM. It also gave a TGI (CCRF-CEM leukemia) of over 1 mM, a GI50 (SF-295 CNS) of 197 µM and a TGI (SF-295 CNS) of 498 µM. The GI50 (HCT-15 colon) was 139 µM, the TGI (HCT-15 colon) was 470 µM and the GI50 (SW-620 colon) was 474 µM. The TGI (SW-620 colon) was over 1 mM, the GI50 (EKVX NSCLC) was 19.2 µM and 123 µM and the TGI (EKVX NSCLC) was 318 µM. For the same compound, the GI50 (SK-MEL-28 melanoma) was 713 µM, the TGI (SK-MEL-28 melanoma) was over 1 mM and the GI50 (DU-145 prostate) was 126 µM. The TGI (DU-145 prostate) was 284 µM, the GI50 (SK-OV-3 ovarian) was 209 µM and the TGI (SK-OV-3 ovarian) was 431 µM. For the same compound, the GI50 (HCT-116 colon) was 152 µM, the TGI (HCT-116 colon) was 297 µM and the GI50 (CAKI-1 renal) was 32 µM and 73.4 µM. It also gave a TGI (CAKI-1 renal) of 251 µM, a GI50 (PC-3 prostate) of 172 µM and a TGI (PC-3 prostate) of 392 µM. The GI50 (SNB-75 CNS) was 91.7 µM and 174 µM, the TGI (SNB-75 CNS) was 419 µM and the GI50 (KM12 colon) was 217 µM. For the same compound, the TGI (KM12 colon) was over 1 mM, the GI50 (UO-31 renal) was 39 µM and 126 µM and the TGI (UO-31 renal) was 504 µM. For the same compound, the GI50 (SR leukemia) was 98.2 µM, the GI50 (SF-539 CNS) was 170 µM and the TGI (SF-539 CNS) was 361 µM. For the same compound, the GI50 (BT-549 breast) was 131 µM, the TGI (BT-549 breast) was 258 µM and the GI50 (LOX IMVI melanoma) was 226 µM. The TGI (LOX IMVI melanoma) was over 1 mM, the GI50 (NCI-H226 lung) was 169 µM and the TGI (NCI-H226 lung) was 307 µM. The GI50 (SN12C renal) was 154 µM, the TGI (SN12C renal) was 331 µM and the GI50 (U251 CNS) was 188 µM. It also gave a TGI (U251 CNS) of 404 µM, a GI50 (786-0 renal) of 142 µM and a TGI (786-0 renal) of 296 µM. The TGI (COLO 205 colon) was over 1 mM, the GI50 (IGROV1 ovarian) was 66.7 µM and 162 µM and the TGI (IGROV1 ovarian) was 477 µM. For the same compound, the GI50 (HOP-62 NSCLC) was 167 µM, the TGI (HOP-62 NSCLC) was 360 µM and the TGI (K-562 leukemia) was over 1 mM. It also gave a GI50 (NCI-H460 lung) of 185 µM, a TGI (NCI-H460 lung) of over 1 mM and a GI50 (TK-10 renal) of 165 µM. For the same compound, the TGI (TK-10 renal) was 326 µM, the GI50 (OVCAR-8 ovarian) was 234 µM and the TGI (OVCAR-8 ovarian) was 846 µM. The GI50 (MDA-MB-231 breast) was 158 µM, the TGI (MDA-MB-231 breast) was 385 µM and the GI50 (NCI-H522 lung) was 159 µM. It also gave a TGI (NCI-H522 lung) of 343 µM, a GI50 (ACHN renal) of 141 µM and a TGI (ACHN renal) of 394 µM. For the same compound, the GI50 (HL-60(TB) leukemia) was 275 µM, the TGI (HL-60(TB) leukemia) was over 1 mM and the GI50 (HS 578T breast) was 195 µM. For the same compound, the TGI (HS 578T breast) was 691 µM, the GI50 (RXF 393 renal) was 134 µM and the TGI (RXF 393 renal) was 262 µM. It also gave a GI50 (RPMI-8226 leukemia) of 194 µM, a TGI (RPMI-8226 leukemia) of 708 µM and a GI50 (MCF7 breast) of 168 µM. For the same compound, the TGI (MCF7 breast) was 611 µM, the GI50 (SK-MEL-2 melanoma) was 296 µM and the TGI (SK-MEL-2 melanoma) was over 1 mM. It also gave a GI50 (UACC-257 melanoma) of 804 µM, a TGI (UACC-257 melanoma) of over 1 mM and a GI50 (T-47D breast) of 184 µM. It also gave a TGI (T-47D breast) of 617 µM, a GI50 (OVCAR-4 ovarian) of 239 µM and a TGI (OVCAR-4 ovarian) of over 1 mM. The GI50 (SF-268 CNS) was 189 µM, the TGI (SF-268 CNS) was 989 µM and the GI50 (UACC-62 melanoma) was 209 µM. For the same compound, the TGI (UACC-62 melanoma) was 497 µM, the GI50 (SNB-19 CNS) was 262 µM and the TGI (SNB-19 CNS) was 722 µM. For the same compound, the GI50 (MOLT-4 leukemia) was 243 µM, the TGI (MOLT-4 leukemia) was over 1 mM and the GI50 (A498 renal) was 30.1 µM and 206 µM. The TGI (A498 renal) was 94.9 µM and 503 µM, the GI50 (HOP-92 NSCLC) was 64.8 µM and 106 µM and the TGI (HOP-92 NSCLC) was 224 µM. The GI50 (OVCAR-3 ovarian) was 139 µM, the TGI (OVCAR-3 ovarian) was 322 µM and the GI50 (A549 NSCLC) was 274 µM. It also gave a TGI (A549 NSCLC) of 897 µM, a GI50 (MDA-MB-435) of 925 µM and a TGI (MDA-MB-435) of over 1 mM. It also gave a GI50 (HT29 colon) of 652 µM, a TGI (HT29 colon) of over 1 mM and a GI50 (MALME-3M melanoma) of 310 µM. The TGI (MALME-3M melanoma) was 753 µM.
